Experiments:
[1] = Colour of anthocyanin solutions in McIlvaine buffer evaluated with Colour charts (Royal Horticulture Society); assay type: physicochemical; settings: for Number in Colour chart at pH 5.3: McIlvaine buffer pH 5.3; for Number in Colour chart at pH 5.3 / Number in Colour chart at pH 5.6 / Number in Colour chart at pH 6.0: greater number = bluer, A = bluest within a number; for Number in Colour chart at pH 5.6: McIlvaine buffer pH 5.6; for Number in Colour chart at pH 6.0: McIlvaine buffer pH 6.0
Experimental: Delphinidin 3,5-diglucoside, awobanin (delphinidin 3-(coumaroyl) glucoside-5-glucoside), malonyl-awobanin (delphinidin 3-(coumaroyl)glucoside-5-(malonyl) glucoside) were dissolved in McIlvaine buffer (pH 5.3, pH 5.6, pH 6.0) in concentrations of 0.1 mM, 0.3 mM, 0.5 mM, respectively, and colours of the solutions were evaluated using Colour charts (Royal Horticulture Society). Delphinidin 3,5-diglucoside can be obtained from its 3,5-diacetylglucoside form by removing the acetyl portion in alkaline hydrolysis reaction (Tetrahedron, 48, 4313–4326, 1992). Awobanin can be obtained from malonyl-awobanin by removing its 5-malonyl portion (Tetrahedron Lett. 24, 4863–4866, 1983). Malonyl-awobanin was obtained by extraction from plants using the method as set forth in Tetrahedron Lett. 24, 4863–4866, 1983. The greater the number in the Colour chart, the bluer the colour is. When the number is the same, symbol A represents the bluest colour.

[2] = Malonyl transferase activity of E. coli-expressed gene product, shisonin as substrate, HPLC detection; assay type: biochemical
Experimental: Measurement of activity of malonyl transferase was conducted using reaction solution 100 μl (potassium phosphate of final concentration of 20 mM, pH 7.0, containing shisonin 10 μg, malonyl CoA 10 μg, and an enzyme sample to be measured, dissolved in 0.01% trifluoro acetic acid). After reaction was carried out at 30° C. for 20 minutes, the reaction was terminated by adding 200 μl of 0.05% TFA aqueous solution cooled on ice. Quantification of shisonin and malonyl-shisonin was conducted by reverse phase high performance liquid chromatography (DYNAMAX HPLC system) using a Shodex Asahipak ODP-50 4E column, and using a linear concentration gradient with 0.5% TFA solution as the solution and 0.5% TFA, 50% acetonitrile aqueous solution as the solution, such that concentration of the B solution was 45%, 45%, 55%, 100%, 100%, 45%, and 45%, at time 0, 3, 17, 18, 23, 24, and 30 minutes, respectively, after the start of separation, at a flow rate of 0.7 ml/min, using 50 μl of reaction solution, monitoring absorption at 520 nm. […]
Enzyme activity was measured using a supernatant (soluble fraction) obtained after centrifuging. […]
As in Example 7, using a plasmid constructed such that the PfMaT1 gene obtained in Example 9 can be expressed as a fusion protein fused with LacZ protein, the PfMaT1 gene was expressed in Escherichia coli as in Example 7, and enzyme activity was measured. […]

O=C(/C=C/c1ccc(O)cc1)OC[C@H]1O[C@@H](Oc2cc3c(O[C@@H]4O[C@H](CO)[C@@H](O)[C@H](O)[C@H]4O)cc(O)cc3[o+]c2-c2cc(O)c(O)c(O)c2)[C@H](O)[C@@H](O)[C@@H]1O [Awobanin, delphinidin 3-(coumaroyl) glucoside-5-glucoside]
Number in Colour chart at pH 5.3 ([1]; 0.1 mM): 85C
Number in Colour chart at pH 5.6 ([1]; 0.1 mM): 85A
Number in Colour chart at pH 6.0 ([1]; 0.1 mM): 91B
Number in Colour chart at pH 5.3 ([1]; 0.3 mM): 86D
Number in Colour chart at pH 6.0 ([1]; 0.3 mM): 91A

OC[C@H]1O[C@@H](Oc2cc3c(O[C@@H]4O[C@H](CO)[C@@H](O)[C@H](O)[C@H]4O)cc(O)cc3[o+]c2-c2cc(O)c(O)c(O)c2)[C@H](O)[C@@H](O)[C@@H]1O [Delphinidin 3,5-diglucoside]
Number in Colour chart at pH 5.3 ([1]; 0.1 mM): 84C
Number in Colour chart at pH 5.6 ([1]; 0.1 mM): 84C
Number in Colour chart at pH 5.3 ([1]; 0.3 mM): 85A
Number in Colour chart at pH 5.6 ([1]; 0.3 mM): 86D
Number in Colour chart at pH 6.0 ([1]; 0.3 mM): 88C
Number in Colour chart at pH 5.3 ([1]; 0.5 mM): 86D
Number in Colour chart at pH 5.6 ([1]; 0.5 mM): 90B
Number in Colour chart at pH 6.0 ([1]; 0.5 mM): 88B/C

O=C(O)CC(=O)OC[C@H]1O[C@@H](Oc2cc(O)cc3[o+]c(-c4cc(O)c(O)c(O)c4)c(O[C@@H]4O[C@H](COC(=O)/C=C/c5ccc(O)cc5)[C@@H](O)[C@H](O)[C@H]4O)cc23)[C@H](O)[C@@H](O)[C@@H]1O [Malonyl-awobanin, delphinidin 3-(coumaroyl)glucoside-5-(malonyl) glucoside]
Number in Colour chart at pH 5.3 ([1]; 0.1 mM): 85C
Number in Colour chart at pH 5.6 ([1]; 0.1 mM): 91B
Number in Colour chart at pH 6.0 ([1]; 0.1 mM): 91B
Number in Colour chart at pH 5.3 ([1]; 0.3 mM): 92A
Number in Colour chart at pH 5.6 ([1]; 0.3 mM): 93B
Number in Colour chart at pH 6.0 ([1]; 0.3 mM): 96C
Number in Colour chart at pH 5.3 ([1]; 0.5 mM): 93B
Number in Colour chart at pH 6.0 ([1]; 0.5 mM): 96A
Colour of solution compared among the three anthocyanins ([1]; all concentrations and pH, versus delphinidin 3,5-diglucoside and awobanin): the bluest

B1: SsMaT1: Salvia splendens malonyl transferase gene product (SEQ ID NO: 23), expressed in E. coli from pQE-30Xa-SsMaT1 (protein, listed as Salvia splendens)
chain: TTTTILETCHIPPPPAANDLSIPLSFFDIKWLHYHPVRRLLFYHHPSSKSQFLHTIVPHLKQSLSLALTHYLPVAGNLLYPSNTEKFPQLRYAAGDSVPVTIAESNSDFESLTGNHTRDADQFYDLLPPIPPIEEESDWKLINIFAVQITLFPGEGICIGFSNHHCLGDASSIVGFISAWGEINGIGGYEGFLSNHSDSLSLPIFDRSFINDPNKIDAIFWKVLSNMPLKTASFPLPTNSVSSTFLLRSSDIEKLKTATKSPASSFVAAAAFVWSCMVKSGDKSDENAPELFIMPADASGSVDPPMPENYFGNCIVSSVAQVERGKLAAEDGFAVAAEAIGGEIEGKLKNSDEILSGAENWMSDMFKCFGMSVLGVSGSPKFDLLKADFGWGKASKLEVLSIDGENHSMSLCSSSDFNGGLEVGLSLPSESMAAFEEVFSASMMAASGPASRSPALVEPL
modifications: possible His tag from pQE-30Xa
Acyl transfer to shisonin with other acyl CoA substrates (new HPLC peak) ([2]; acetyl CoA, methylmalonyl CoA, or succinyl CoA in place of malonyl CoA): a new peak in addition to shisonin was observed
Malonyl transferase activity (formation of malonyl-shisonin) ([2]; shisonin and malonyl CoA, 30° C., 20 minutes, pH 7.0, soluble extract of expressing Escherichia coli): malonyl-shisonin was produced

From patent US7186886B2, “Aliphatic acyl transferase genes” (International Flower Developments Proprietary Limited, priority 2000, dated 2007)
